Test system: compound-treated mice
Experiment: Neuropharmacological assay (SmartCube): behavioral activity signature and minimal effective dose
Format: in vivo
Settings: for minimal effective dose: Mus musculus, ip, read-out: Potency: minimal effective dose (MED), binned; for minimal effective dose / Potency: minimal effective dose (MED), binned: MED = dose having 50% or more total activity; for AD: ADHD (probability of activity signature) / AG: analgesic (probability of activity signature) / AX: anxiolytic (probability of activity signature) / CE: cognitive enhancer (probability of activity signature) / DP: anti-depressant (probability of activity signature) / MS: mood stabilizer (probability of activity signature) / PS: anti-psychotic (probability of activity signature) / SD: sedative hypnotic (probability of activity signature) / UN: uncharacterized CNS activity (probability of activity signature): i.p. 15 min before test, most efficacious dose(s)
Excerpt: Neurosci. 2011 Sep. 9; 5:103 (doi: 10.3389/fnins.2011.00103) (“Roberds”). As reported in Roberds, because psychiatric diseases generally result from disorders of cell-cell communication or circuitry, intact systems are useful in detecting improvement in disease-relevant endpoints. These endpoints are typically behavioral in nature, often requiring human observation and interpretation. To facilitate testing of multiple compounds for behavioral effects relevant to psychiatric disease, PsychoGenics, Inc. (Tarrytown, N.Y., “PGI”) developed SmartCube™, an automated system in which behaviors of compound-treated mice are captured by digital video and analyzed with computer algorithms. (D. Brunner et al., Drug Discov. Today 2002, 7:S107-S112). PGI Analytical Systems uses data from SmartCube™ to compare the behavioral signature of a test compound to a database of behavioral signatures obtained using a large set of diverse reference compounds. (The composition of the database as well as validation of the method is further described in Roberds). In this way, the neuropharmacological effects of a test compound can be predicted by similarity to major classes of compounds, such as antipsychotics, anxiolytics and antidepressants.
The SmartCube™ system produces an activity signature indicating the probability that the activity of the test compound at the administered dose matches a given class of neuropharmacological agents. (See, e.g., Roberds, FIGS. 2 and 3). The test compound is simultaneously compared against multiple classes of agents; thus, a separate probability is generated for each behavioral effect measured (e.g., anxiolytic activity, analgesic activity, etc.). In the table below, these probabilities are reported for each behavioral effect measured as follows:
where LOQ is the limit of quantification.
Provided compounds were dissolved in a mixture of Pharmasolve™ (N-methyl-2-pyrrolidone), polyethylene glycol and propylene glycol, and were injected i.p. 15 min. before the behavioral test. For each compound, injections were administered at 3 different doses. For each behavioral effect measured, results for the most efficacious dose(s) are presented. In the table below, DP: anti-depressant; AX: anxiolytic; SD: sedative hypnotic; PS: anti-psychotic; MS: mood stabilizer; AD: ADHD; CE: cognitive enhancer; AG: analgesic; UN: uncharacterized CNS activity.
The potency of many of the compounds in the table was also determined in the SmartCube™ system. Test compounds were routinely examined at dose levels of 0.3, 1, 3, 10 and 30 mg per kg (mpk), although the dose range was increased or decreased if necessary to obtain a full dose response curve. A compound's minimal effective dose (MED) is a measure of the compounds potency. The MED was defined as the dose (in mpk) having 50% or more total activity in SmartCube.

SMILES | minimal effective dose [mg/kg] | AD: ADHD (probability of activity signature) | AG: analgesic (probability of activity signature) | AX: anxiolytic (probability of activity signature) | CE: cognitive enhancer (probability of activity signature) | DP: anti-depressant (probability of activity signature) | MS: mood stabilizer (probability of activity signature) | PS: anti-psychotic (probability of activity signature) | SD: sedative hypnotic (probability of activity signature) | UN: uncharacterized CNS activity (probability of activity signature) | Potency: minimal effective dose (MED), binned
Cc1ccc2c(c1)[C@@H](N)[C@@H](C)OC2 (single isomer, unassigned) [Example 158] | 3 to 10 | + (LOQ ≤ + <5%) | ++ (5% ≤ ++ <25%) | ++ (5% ≤ ++ <25%) | ++ (5% ≤ ++ <25%) | ++ (5% ≤ ++ <25%) | + (LOQ ≤ + <5%) | +++ (25% ≤ +++ <50%) | ++ (5% ≤ ++ <25%) | ++ (5% ≤ ++ <25%) | –
Cl.NC1COCc2ccc3c(c21)C1CCC3C1 (single isomer, unassigned) [Example 161] | – | + (LOQ ≤ + <5%) | ++ (5% ≤ ++ <25%) | +++ (25% ≤ +++ <50%) | ++ (5% ≤ ++ <25%) | ++ (5% ≤ ++ <25%) | + (LOQ ≤ + <5%) | ++ (5% ≤ ++ <25%) | + (LOQ ≤ + <5%) | ++ (5% ≤ ++ <25%) | B (>3 to 10 mpk)
Cl.NC1COCc2ccc3c(c21)C1CCC3C1 (single isomer, unassigned) [Example 162] | – | + (LOQ ≤ + <5%) | ++ (5% ≤ ++ <25%) | +++ (25% ≤ +++ <50%) | ++ (5% ≤ ++ <25%) | + (LOQ ≤ + <5%) | + (LOQ ≤ + <5%) | ++ (5% ≤ ++ <25%) | + (LOQ ≤ + <5%) | +++ (25% ≤ +++ <50%) | B (>3 to 10 mpk)
Cl.NC1COCc2ccc3c(c21)C1CCC3C1 (single isomer, unassigned) [Example 163] | – | + (LOQ ≤ + <5%) | ++ (5% ≤ ++ <25%) | ++ (5% ≤ ++ <25%) | ++ (5% ≤ ++ <25%) | ++ (5% ≤ ++ <25%) | + (LOQ ≤ + <5%) | +++ (25% ≤ +++ <50%) | ++ (5% ≤ ++ <25%) | +++ (25% ≤ +++ <50%) | B (>3 to 10 mpk)
Cl.NC1COCc2ccc3c(c21)C1CCC3C1 (single isomer, unassigned) [Example 164] | – | + (LOQ ≤ + <5%) | ++ (5% ≤ ++ <25%) | +++ (25% ≤ +++ <50%) | ++ (5% ≤ ++ <25%) | + (LOQ ≤ + <5%) | + (LOQ ≤ + <5%) | ++ (5% ≤ ++ <25%) | ++ (5% ≤ ++ <25%) | +++ (25% ≤ +++ <50%) | B (>3 to 10 mpk)
Cc1ccc(C)c2c1COC[C@H]2N (single isomer, unassigned) [Example 165] | 3 to 10 | + (LOQ ≤ + <5%) | + (LOQ ≤ + <5%) | ++ (5% ≤ ++ <25%) | ++ (5% ≤ ++ <25%) | ++ (5% ≤ ++ <25%) | + (LOQ ≤ + <5%) | ++ (5% ≤ ++ <25%) | + (LOQ ≤ + <5%) | ++++ (50% ≤ ++++) | –
Cc1ccc(C)c2c1COC[C@@H]2N (single isomer, unassigned) [Example 166] | 3 to 10 | + (LOQ ≤ + <5%) | + (LOQ ≤ + <5%) | ++ (5% ≤ ++ <25%) | ++ (5% ≤ ++ <25%) | + (LOQ ≤ + <5%) | + (LOQ ≤ + <5%) | ++ (5% ≤ ++ <25%) | ++ (5% ≤ ++ <25%) | ++++ (50% ≤ ++++) | –
Cc1cccc2c1[C@H](N)[C@@H](C)OC2 (single isomer, unassigned) [Example 167] | < 3 | + (LOQ ≤ + <5%) | ++ (5% ≤ ++ <25%) | ++ (5% ≤ ++ <25%) | + (LOQ ≤ + <5%) | + (LOQ ≤ + <5%) | + (LOQ ≤ + <5%) | ++ (5% ≤ ++ <25%) | + (LOQ ≤ + <5%) | ++++ (50% ≤ ++++) | –
Cc1cccc2c1[C@@H](N)[C@H](C)OC2 (single isomer, unassigned) [Example 168] | 3 to 10 | + (LOQ ≤ + <5%) | + (LOQ ≤ + <5%) | ++ (5% ≤ ++ <25%) | ++ (5% ≤ ++ <25%) | ++ (5% ≤ ++ <25%) | + (LOQ ≤ + <5%) | +++ (25% ≤ +++ <50%) | + (LOQ ≤ + <5%) | ++++ (50% ≤ ++++) | –
Cc1cccc2c1[C@H](N)[C@H](C)OC2 (single isomer, unassigned) [Example 169] | < 3 | + (LOQ ≤ + <5%) | ++ (5% ≤ ++ <25%) | ++ (5% ≤ ++ <25%) | ++ (5% ≤ ++ <25%) | ++ (5% ≤ ++ <25%) | + (LOQ ≤ + <5%) | ++ (5% ≤ ++ <25%) | ++ (5% ≤ ++ <25%) | ++++ (50% ≤ ++++) | –

From patent US11077090B2, “Compounds and compositions and uses thereof” (Sunovion Pharmaceuticals Inc., priority 2016, dated 2021)
